Assay results from article PMC8877291, “Design and Synthesis of Arylpiperazine Serotonergic/Dopaminergic Ligands with Neuroprotective Properties” (Molecules, 2022).

Experiments:
dopamine D1 receptor = target: T1, dopamine D1 receptor (Homo sapiens, UniProt P21728); assay: Dopamine D1 receptor competition binding ([3H]-SCH23390); conditions: HEK-293 membranes, [3H]-SCH23390 0.3 nM, mean (CI 95%), read-out: Affinity Ki D1
T1 construct: expressed in transfected cells
Procedure: (§1) The final compounds were tested for their affinity at serotonin 5-HT1A, 5-HT2A, and 5-HT7 receptors and at dopamine D1, D2, D3, and D5 receptors. As a first step, competition radioligand binding assays were carried out for all the compounds at the single concentration of 10 µM, on membrane preparations from stable cell lines heterologously expressing the human cloned 5-HT1A, 5-HT2A, or 5-HT7 receptors. […] For the affinity determination at dopamine receptor subtypes, membrane fractions of human dopamine D2s, D3, D1, and D5 receptor-expressing cells were used. They were co-incubated with [^3H]spiperone (for D2s and D3 receptor) or [^3H]SCH23390 (for D1 and D5 receptor) and appropriate concentrations of test compound for 120 min. Bound radioligand was separated from the free ligand using filtration. Radioactivity was measured by liquid scintillation counting.
The affinity for dopamine D1 and D5 receptors was evaluated in membrane fractions of HEK-293 cells stably expressing the human dopamine D1 or D5 receptor. HEK-293-D1 cells were cultured in DMEM/F12 (15 mM HEPES, 1.2 g/L NaHCO3) with 10% (v/v) FBS and 1% (v/v) L-glutamine. HEK-293-D5 cells were cultured in DMEM/F12 (with L-glutamine, 1.2 g/L NaHCO3) with 20% (v/v) FBS. Preparation of membrane fractions and radioligand competition assays were performed as previously described. Briefly, membrane fractions were co-incubated with [^3H]-SCH23390 (0.3 nM) and different concentrations of test compound for 120 min at room temperature. Fluphenazine (100 µM) was used to determine non-specific binding and as reference compound.
Data of at least three independent experiments in triplicate were analyzed using GraphPad Prism 8.1 (San Diego, CA, USA). Binding curves were fitted to a non-linear regression model (one-site competition). Ki values were calculated from IC50 values using the Cheng–Prusoff equation. The statistical calculations were performed on –log(Ki).

[1] = target: T2, serotonin 5-HT7 receptor (5-HT7A) (Homo sapiens, UniProt P34969); assay: 5-HT7 receptor radioligand competition binding ([3H]-SB269970); conditions: human cloned 5-HT7A receptor, HEK293 membranes, 2 nM [3H]-SB269970; ± S.E.M., n = 3 in duplicate; read-out: Affinity Ki 5-HT7
T2 construct: expressed in transfected cells
Procedure: as §1, with “As” for “The final compounds were tested for their affinity at serotonin 5-HT1A, 5-HT2A, and 5-HT7 receptors and at dopamine D1, D2, D3, and D5 receptors. As”
The affinity of the compounds for serotonin 5-HT7 receptor was evaluated in membrane preparations from HEK293 cells stably expressing the human cloned 5-HT7A receptor, following previously described procedures with minor modifications. Competition binding experiments were performed using 2 nM [^3H]-SB269970 (34.5 Ci/mmol, 0.25 mCi/mL, Perkin Elmer NET1198U250UC) as radioligand. […] Methiothepine was included in the assays as reference compound. Assays were carried out in duplicate in 96-well assay plates, in assay buffer (50 mM Tris-HCl, 4 mM MgCl2, 1 mM ascorbic acid, 0.1 mM pargyline, pH = 7.4). Assay mixtures were incubated at 37 °C for 60 min, followed by filtration through GF/C glass filter plates, and washing with ice-cold assay buffer. Affinity (equilibrium dissociation constant, Ki) of the compounds was calculated from competition binding curves as indicated above.

dopamine D2s receptor = dopamine D2s receptor (Homo sapiens, UniProt P14416); assay: Dopamine D2s receptor competition binding ([3H]spiperone)
Procedure: Competition binding experiments at dopamine D2s and D3 receptor were performed to determine the affinity of the compounds. […] Membrane preparations of transfected CHO-K1 cells stably expressing the human D2s or D3 receptor were performed according to Bautista-Aguilera et al. [26]. The competition binding experiments were conducted as previously reported [26, 27]. Briefly, membrane fractions (D2sR: 25 µg/200 µL; D3R: 20 µg/200 µL) were incubated with [^3H]spiperone (0.2 nM) and test compound for 120 min at room temperature. […] Non-specific binding was determined in the presence of 10 µM haloperidol. Haloperidol was also used as reference compound. Separation of the bound ligand from the free ligand was conducted by filtration through GF/B filters using deionized water.

[2] = target: T3, serotonin 5-HT2A receptor (Homo sapiens, UniProt P28223); assay: 5-HT2A receptor radioligand competition binding ([3H]-ketanserin); conditions: human cloned receptor, CHO-K1 membranes, 1 nM [3H]-ketanserin; ± S.E.M., n = 3 in duplicate; read-out: Affinity Ki 5-HT2A
T3 construct: expressed in transfected cells

[3] = Cytotoxicity in SH-SY5Y cells (MTT assay); type: cell-based, human; conditions: human, SH-SY5Y neuroblastoma cells, MTT, 0.1 to 100 μM, ± S.E.M.
Procedure: Initially, the cytotoxicity of the target compounds was assessed by treating SH-SY5Y cells for 48 h with various concentrations of compounds (0.1 to 100 μM).
SH-SY5Y neuroblastoma cells (cat. CRL-2266, ATCC) were cultured in a 1:1 mixture of Eagle’s Minimum Essential Medium (cat. 15-010-CVR, Corning) and Ham’s F12 medium (cat. 10-080-CVR, Corning). This medium was supplemented with 10% (v/v) Fetal Bovine Serum (cat. 35-079-CV, Corning), 1% (v/v) Glutamine (cat. ECB3000D, Euro Clone) and 1% (v/v) Penicillin—Streptomycin (cat.30-002-CI, Corning). Cells were cultivated at 37 °C with 5% CO2 at saturated humidity.
Determination of cell growth was performed using the MTT assay at 48 h. On day 1, 25,000 cells/well were seeded into 96-well plates in a volume of 100 μL. On day 2, the various drug concentrations ([…]–100 μM) were added. In all the experiments, the various drug-solvents (EtOH, DMSO) were added in each control to evaluate possible solvent cytotoxicity. After the established incubation time with drugs (48 h), MTT (0.5 mg/mL) was added to each well, and after 3–4 h incubation at 37 °C, the supernatant was removed. The formazan crystals were solubilized using 100 μL of DMSO/EtOH (1:1, v/v) and the absorbance values at 570 and 630 nm were determined on the microplate reader Victor 3 (PerkinElmer Life Sciences, Waltham, MA, USA).

T3 sequence (P28223 whole entry): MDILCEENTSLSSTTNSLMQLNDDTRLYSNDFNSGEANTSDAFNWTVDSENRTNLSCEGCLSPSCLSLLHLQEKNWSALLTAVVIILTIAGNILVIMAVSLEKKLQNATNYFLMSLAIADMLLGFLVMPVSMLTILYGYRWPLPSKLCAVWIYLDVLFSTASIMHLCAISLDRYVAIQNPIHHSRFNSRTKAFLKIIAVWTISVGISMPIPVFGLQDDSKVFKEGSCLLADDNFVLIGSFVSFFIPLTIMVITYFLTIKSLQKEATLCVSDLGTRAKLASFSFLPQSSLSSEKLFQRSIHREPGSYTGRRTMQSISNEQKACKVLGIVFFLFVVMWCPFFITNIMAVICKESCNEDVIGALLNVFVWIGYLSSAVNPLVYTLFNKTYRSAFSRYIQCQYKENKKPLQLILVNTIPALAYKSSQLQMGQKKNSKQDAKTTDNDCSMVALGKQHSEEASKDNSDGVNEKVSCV
T1 sequence (P21728 whole entry): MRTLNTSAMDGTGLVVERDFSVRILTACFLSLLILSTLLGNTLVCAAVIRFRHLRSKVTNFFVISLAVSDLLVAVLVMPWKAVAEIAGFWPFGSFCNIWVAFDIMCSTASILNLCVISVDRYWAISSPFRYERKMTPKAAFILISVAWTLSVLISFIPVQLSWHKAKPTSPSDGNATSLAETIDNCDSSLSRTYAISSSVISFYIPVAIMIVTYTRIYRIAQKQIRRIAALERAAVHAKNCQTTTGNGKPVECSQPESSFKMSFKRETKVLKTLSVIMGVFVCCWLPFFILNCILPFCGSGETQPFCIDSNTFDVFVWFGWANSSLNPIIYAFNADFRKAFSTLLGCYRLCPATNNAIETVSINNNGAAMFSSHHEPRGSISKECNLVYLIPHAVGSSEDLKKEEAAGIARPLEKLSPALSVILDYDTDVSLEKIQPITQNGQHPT
T2 sequence (P34969 1-445 isoform P34969-2): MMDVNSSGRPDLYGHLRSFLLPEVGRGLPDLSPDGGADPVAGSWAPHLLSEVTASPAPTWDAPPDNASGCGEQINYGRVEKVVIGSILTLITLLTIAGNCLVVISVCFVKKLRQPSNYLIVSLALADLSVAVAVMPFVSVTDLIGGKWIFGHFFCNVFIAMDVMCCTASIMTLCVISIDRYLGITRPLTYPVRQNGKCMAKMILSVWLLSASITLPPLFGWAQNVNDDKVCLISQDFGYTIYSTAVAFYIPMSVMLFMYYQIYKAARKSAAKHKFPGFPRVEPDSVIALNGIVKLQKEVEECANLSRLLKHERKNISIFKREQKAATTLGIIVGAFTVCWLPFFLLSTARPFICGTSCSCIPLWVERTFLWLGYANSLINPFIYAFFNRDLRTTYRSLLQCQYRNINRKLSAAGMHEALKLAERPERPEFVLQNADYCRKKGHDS
Sequence of dopamine D2s receptor (P14416 1-414 isoform P14416-2): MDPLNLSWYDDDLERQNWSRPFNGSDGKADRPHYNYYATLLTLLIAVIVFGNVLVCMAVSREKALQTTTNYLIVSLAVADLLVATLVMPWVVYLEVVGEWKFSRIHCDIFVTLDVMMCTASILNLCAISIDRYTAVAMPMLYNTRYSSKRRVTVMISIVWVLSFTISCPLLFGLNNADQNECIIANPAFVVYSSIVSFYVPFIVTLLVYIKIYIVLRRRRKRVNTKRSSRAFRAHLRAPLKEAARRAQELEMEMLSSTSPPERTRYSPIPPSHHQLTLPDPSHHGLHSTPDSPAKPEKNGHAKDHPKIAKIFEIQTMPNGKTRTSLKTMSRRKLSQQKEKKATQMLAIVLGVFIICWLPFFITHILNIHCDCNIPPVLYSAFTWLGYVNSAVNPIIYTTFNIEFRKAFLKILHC

SMILES	Ki (dopamine D1 receptor) [nM]	Ki [1] [nM]	Ki (dopamine D2s receptor) [nM]	Ki [2] [nM]	EC50 at 48 h [3] [nM]
CC1Oc2ccc(OCCCN3CCN(c4ncccc4-c4ccncc4)CC3)cc2NC1=O (stereo not drawn) [Compound 8a, 6-(3-(4-([3,4’-Bipyridin]-2-yl)piperazin-1-yl)propoxy)-2-methyl-2H-benzo[b][1,4]oxazin-3(4H)-one]	6290	10.7 ± 0.7	388	782 ± 119	32900 ± 3500
CC1Oc2ccc(OCCCCN3CCN(c4ncccc4-c4ccncc4)CC3)cc2NC1=O (stereo not drawn) [Compound 8b, 6-(4-(4-([3,4’-Bipyridin]-2-yl)piperazin-1-yl)butoxy)-2-methyl-2H-benzo[b][1,4]oxazin-3(4H)-one]	1710	9.38 ± 0.42	9.08	611 ± 87	25500 ± 2200
COc1ccc(-c2cc(F)ccc2N2CCN(CCCCn3ncc(=O)n(C)c3=O)CC2)cc1 [Compound 9b, 2-(4-(4-(5-Fluoro-4’-methoxy-[1,1’-biphenyl]-2-yl)piperazin-1-yl)butyl)-4-methyl-1,2,4-triazine-3,5(2H,4H)-dione]	88.3	45 ± 3.4	> 10000	39.4 ± 7.4	51900 ± 4300
Cn1c(=O)cnn(CCCN2CCN(c3ccc(F)cc3-c3ccc(C#N)cc3)CC2)c1=O [Compound 10a, 5’-Fluoro-2’-(4-(3-(4-methyl-3,5-dioxo-4,5-dihydro-1,2,4-triazin-2(3H)-yl)propyl)piperazin-1-yl)-[1,1’-biphenyl]-4-carbonitrile]	104	45.7 ± 1.3	> 10000	96.8 ± 11	28200 ± 3200
Cn1c(=O)cnn(CCCCN2CCN(c3ccc(F)cc3-c3ccc(C#N)cc3)CC2)c1=O [Compound 10b, 5’-Fluoro-2’-(4-(4-(4-methyl-3,5-dioxo-4,5-dihydro-1,2,4-triazin-2(3H)-yl)butyl)piperazin-1-yl)-[1,1’-biphenyl]-4-carbonitrile]	140	36.5 ± 5.2	> 10000	80.7 ± 3.1	34300 ± 2500
Cn1c(=O)cnn(CCCN2CCN(c3ncccc3-c3ccncc3)CC2)c1=O [Compound 11a, 2-(3-(4-([3,4’-Bipyridin]-2-yl)piperazin-1-yl)propyl)-4-methyl-1,2,4-triazine-3,5(2H,4H)-dione]	> 10000	44.5 ± 2.2	> 10000	> 10000	> 100000
Cn1c(=O)cnn(CCCCN2CCN(c3ncccc3-c3ccncc3)CC2)c1=O [Compound 11b, 2-(4-(4-([3,4’-Bipyridin]-2-yl)piperazin-1-yl)butyl)-4-methyl-1,2,4-triazine-3,5(2H,4H)-dione]	> 10000	79.4 ± 9	> 10000	> 10000	> 100000
Cc1cc(=O)oc2cc(OCCCN3CCN(c4ncccc4-c4ccncc4)CC3)ccc12 [Compound 12a, 7-(3-(4-([3,4’-Bipyridin]-2-yl)piperazin-1-yl)propoxy)-4-methyl-2H-chromen-2-one]	2200	42.5 ± 6.2	300	315 ± 44	35200 ± 4100
Cc1cc(=O)oc2cc(OCCCCN3CCN(c4ncccc4-c4ccncc4)CC3)ccc12 [Compound 12b, 7-(4-(4-([3,4’-Bipyridin]-2-yl)piperazin-1-yl)butoxy)-4-methyl-2H-chromen-2-one]	1530	52.2 ± 10.6	17	~1420	47900 ± 3500
